Earlier results as cited in patent US20070059354A1 (priority 2005, published 2007).

solubility in water: practically insoluble in water
Structure (SMILES): NC(=O)N1c2ccccc2CC(=O)c2ccccc21 [Oxcarbazepine]
